Reference: patent US9964543B2, “Selection of medicaments that modulate the function and activity of interleukin 13” (GLYCAN BIOSCIENCES LLC, priority 2007, dated 2018)

How the values were obtained:
[1] = system: IL-13 dependent proliferation of TF-1.8 cells; assay: IL-13 dependent proliferation of TF-1.8 cells (luciferase); type: cell-based, human; details: 10 μg/ml, titration of IL-13 (FIG. 2A)
Description: Heparin inhibited the proliferation of a human IL-13 responsive cell line. This occurs at very low doses and is not due to a toxic effect of the heparin because other, similarly sulfated polysaccharides, at the same concentrations of IL-13 and polysaccharide have no effect. These experiments utilize the TF-1.8 cells. TF-1.8 cells are a subclone of the TF-1 cells that have been selected for growth in IL-4, and because IL-4 and IL-13 share a receptor these cells are also responsive to IL-13. TF-1 cells were originally established from a bone marrow sample from a person with severe pancytopenia. […]
TF-1.8 cells have been transfected with the firefly luciferase gene contained in the expression vector, pPGK-puromycin-luciferase (Coombe et al, J. Immunol. Methods 215:145-150, 1998). […] The cells are counted with a Coulter Z2 Particle Counter and Size Analyzer (Coulter Electronics, England) and routinely 2.5×10^4 cells are added to microplate wells that contain either no IL-13 (negative control) or various dilutions of IL-13. When the effect of PPS, or other sulfated polysaccharides is to be measured, the wells also contain various concentrations of these molecules. […]
PPS inhibited the proliferation of a human IL-13 responsive cell line. […] When the effect of PPS is to be measured, the wells also contain various concentrations of this molecule. […]

IL-13Rα1 = molecular target: T1, IL-13Rα1 (Homo sapiens, UniProt P78552); details: low-moderate affinity; read-out: affinity of IL-13Rα1 by itself for IL-13; cited from earlier work
T1 sequence (P78552 22-427): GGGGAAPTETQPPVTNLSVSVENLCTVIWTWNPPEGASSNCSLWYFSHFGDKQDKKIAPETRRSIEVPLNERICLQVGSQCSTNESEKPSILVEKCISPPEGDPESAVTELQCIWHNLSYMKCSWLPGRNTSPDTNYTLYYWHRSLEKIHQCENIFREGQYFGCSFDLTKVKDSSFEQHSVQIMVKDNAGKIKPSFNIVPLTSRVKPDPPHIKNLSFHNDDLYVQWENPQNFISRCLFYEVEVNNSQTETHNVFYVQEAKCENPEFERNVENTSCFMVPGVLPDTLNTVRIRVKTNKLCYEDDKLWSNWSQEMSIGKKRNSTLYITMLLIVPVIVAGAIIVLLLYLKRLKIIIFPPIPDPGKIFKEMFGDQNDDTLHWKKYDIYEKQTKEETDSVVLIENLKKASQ

[2] = BIACORE binding of IL-13 proteins to immobilized heparin; details: surface plasmon resonance
Description: The optical phenomenon of surface plasmon resonance is used to monitor physical interactions between molecules. Passing a solution of a potential protein ligand (e.g. IL-13) over a sensor surface to which a target (e.g. heparin) is coupled monitors the real-time binding of protein ligands to the immobilized target. Detection is achieved by measuring refractive index changes very close to the sensor surface. When the refractive index is altered, the angle at which plasmon resonance occurs changes and this change directly correlates with the amount of protein interacting with the surface. A BIACORE 2000 sensor chip is conveniently used. It is very sensitive and its microfiuidics ensures that only small amounts of material are required.
Biotinylated heparin is immobilized on the biosensor chip. […] Solutions containing potential protein ligands of interest are injected over the sensor chip surface, and the binding is measured in real time (Femig, In: Proteoglycan protocols, Ed. R. V. Iozzo, Humana Press, Totowa, N.J., USA, 2001). Bacterially expressed recombinant human IL-13 (rhIL-13) readily binds to heparin immobilized by this method. […]
Site directed mutagenesis was performed on IL-13. […] Mutant IL-13 proteins were examined for their ability to bind heparin immobilized on a biosensor chip and binding was assessed using a BIACORE 2000 sensor chip.

IL-13 Rα2 = molecular target: T2, IL-13 Rα2 (Homo sapiens, UniProt Q14627); details: high affinity; cited from earlier work
T2 sequence (Q14627 27-380): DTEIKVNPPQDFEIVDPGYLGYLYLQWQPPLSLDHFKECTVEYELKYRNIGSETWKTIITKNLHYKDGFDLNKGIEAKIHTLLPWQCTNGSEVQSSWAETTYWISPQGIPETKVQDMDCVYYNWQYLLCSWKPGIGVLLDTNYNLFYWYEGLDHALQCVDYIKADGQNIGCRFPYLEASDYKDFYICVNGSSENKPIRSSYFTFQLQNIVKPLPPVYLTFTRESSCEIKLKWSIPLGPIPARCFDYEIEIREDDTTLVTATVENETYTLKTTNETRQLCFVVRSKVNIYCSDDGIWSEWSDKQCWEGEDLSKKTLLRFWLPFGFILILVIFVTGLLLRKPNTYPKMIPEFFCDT

TF-1 cells = assay: TF-1 cell proliferation induced by IL-13 proteins; type: cell-based, human
Protocol: The ability of sulfated xylans to inhibit IL-13 mediated cell proliferation is size dependent. These experiments utilized the TF-1 cell line from which the TF1.8 cells were derived. The assay is performed as described above with the TF1.8 cells the differences being the concentration of IL-13 required for cell growth and the fact that cell number is determined using a dye. Briefly, proliferation assays are carried out in 96-well microplates suitable for such assays. Cells are washed to remove any cytokine in the growth medium and then resuspended in RPMI/5% w/v FCS and routinely 2.5×10^4 cells are added to microplate wells that contain either no IL-13 (negative control) or various dilutions of IL-13. When the effect of the different sized sulfated xylans was measured, the wells also contained various concentrations of these molecules and the IL-13 concentration was held constant at 2.5 ng/ml. The cells proliferated for 48 hours, after which the number of cells present was quantified by staining with […] of the AQUEOUS ONE dye for 3 hours and then absorbance was read at 490 nm.
The IL-13R111 wild type and the IL-13Q111 variant are shown for comparison.
Details of the assay are given in Example 6.

Molecule: O=S(=O)(O)OC[C@H]1O[C@@](COS(=O)(=O)O)(O[C@H]2O[C@H](COS(=O)(=O)O)[C@@H](OS(=O)(=O)O)[C@H](OS(=O)(=O)O)[C@H]2OS(=O)(=O)O)[C@@H](OS(=O)(=O)O)[C@@H]1OS(=O)(=O)O [sucrose octasulfate]
- inhibition of IL-13 mediated cell proliferation [1]: very little inhibitory activity

Molecule: IL-13 WT (R111): wild type human IL-13 with arginine in the 111 position; 1IJZ.pdb monomer in docking
- Kd (IL-13Rα1): 2 to 10 nM
- binding to heparin immobilized on BIACORE sensor chip ([2]; listed as rhIL-13): readily binds
- binding to heparin immobilized on BIACORE sensor chip ([2]; listed as wild type IL-13): binds heparin more strongly
- Kd (IL-13 Rα2): 0.5 to 1.2 nM
- Concentration of IL-13 required for 50% TF-1 cell proliferation ED50 ave (TF-1 cells): 1.2 ng/mL
- cell proliferative activity in the TF-1 cell assay (TF-1 cells; FIG. 7A): comparable
